Structures are written as SMILES.

Chain of human Gal-3 (hGal-3) (P17931 whole entry): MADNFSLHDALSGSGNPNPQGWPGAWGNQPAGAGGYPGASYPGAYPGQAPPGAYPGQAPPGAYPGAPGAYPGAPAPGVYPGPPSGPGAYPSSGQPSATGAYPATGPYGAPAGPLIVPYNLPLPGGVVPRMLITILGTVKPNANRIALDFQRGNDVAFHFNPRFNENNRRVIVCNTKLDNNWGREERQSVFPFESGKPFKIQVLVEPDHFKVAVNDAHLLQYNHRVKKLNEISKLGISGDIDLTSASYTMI

In the test the target is human Gal-3 (hGal-3) (Homo sapiens (Human), UniProt P17931). Kind of test: Competitive binding assay: biotinylated hGal-3 binding to microplate-adsorbed asialofetuin (ASF). The conditions noted are these: Activity on hGal-3; mean values of several measurements; mixture of diastereomers measured where not separated. How it is done:
The inhibitory activity of compounds is determined in competitive binding assays. This spectrophotometric assay measures the binding of biotinylated human Gal-3 (hGal-3) or human Gal-1 (hGal-1), respectively, to a microplate-adsorbed glycoprotein, asialofetuin (ASF) (Proc Natl Acad Sci USA. 2013 Mar 26;110(13):5052-7.). Alternatively, and preferably, a human Gal-1 version in which all six cysteines are substituted by serines may be used.
Briefly, compounds are serially diluted in DMSO (working dilutions).
Plates are incubated for 3 hours at 4° C., then washed with cold assay buffer (3×50 uL), incubated for 1 hour with 25 μL/well of a streptavidin-peroxidase solution (diluted in assay buffer to 80 ng/mL) at 4° C., followed by further washing steps with assay buffer (3×50 uL). Finally, 25 μL/well of ABTS substrate is added.
The calculated IC50 values may fluctuate depending on the daily assay performance. Fluctuations of this kind are known to those skilled in the art. IC50 values from several measurements are given as mean values.
As to `CO[C@@H]1[C@@H](n2cc(-c3ccc(C)c(F)c3F)nn2)[C@@H](O)[C@@H](CO)O[C@H]1C(=O)N(c1cc(Cl)cc(Cl)c1)[C@H]1CNC[C@@H]1O` [Example 63, (2R,3R,4S,5R,6R)-N-(3,5-dichlorophenyl)-4-(4-(2,3-difluoro-4-methylphenyl)-1H-1,2,3-triazol-1-yl)-5-hydroxy-6-(hydroxymethyl)-N-((3S,4S)-4-hydroxypyrrolidin-3-yl)-3-methoxytetrahydro-2H-pyran-2-carboxamide], the IC50 (in general, the midpoint of a concentration-inhibition curve) stood at 24 nM. Turning to `CO[C@@H]1[C@@H](n2cc(-c3ccc(Cl)c(Cl)c3)nn2)[C@@H](O)[C@@H](CO)O[C@H]1C(=O)N(c1cc(Br)cc(C#N)c1)[C@@H]1COC[C@H]1O` [Example 57, (2R,3R,4S,5R,6R)-N-(3-bromo-5-cyanophenyl)-4-(4-(3,4-dichlorophenyl)-1H-1,2,3-triazol-1-yl)-5-hydroxy-6-(hydroxymethyl)-N-((3R,4S)-4-hydroxytetrahydrofuran-3-yl)-3-methoxytetrahydro-2H-pyran-2-carboxamide], the IC50 was 151 nM. Under `CO[C@@H]1[C@@H](n2cc(-c3cc(F)c(F)c(F)c3)nn2)[C@@H](O)[C@@H](CO)O[C@H]1C(=O)N(c1cc(Br)cc(C#N)c1)[C@H]1CNC[C@@H]1O` [Example 60, (2R,3R,4S,5R,6R)-N-(3-bromo-5-cyanophenyl)-5-hydroxy-6-(hydroxymethyl)-N-((3S,4S)-4-hydroxypyrrolidin-3-yl)-3-methoxy-4-(4-(3,4,5-trifluorophenyl)-1H-1,2,3-triazol-1-yl)tetrahydro-2H-pyran-2-carboxamide] stands 51 nM; under `CO[C@@H]1[C@@H](n2cc(-c3cc(F)c(F)c(F)c3)nn2)[C@@H](O)[C@@H](CO)O[C@H]1C(=O)N(c1cc(C)cc(Br)c1)[C@H]1CN(C=O)C[C@@H]1O` [Example 90, (2R,3R,4S,5R,6R)-N-(3-bromo-5-methylphenyl)-N-((3S,4S)-1-formyl-4-hydroxypyrrolidin-3-yl)-5-hydroxy-6-(hydroxymethyl)-3-methoxy-4-(4-(3,4,5-trifluorophenyl)-1H-1,2,3-triazol-1-yl)tetrahydro-2H-pyran-2-carboxamide], 20 nM. The result for `CO[C@@H]1[C@@H](n2cc(-c3cc(F)c(F)c(F)c3)nn2)[C@@H](O)[C@@H](CO)O[C@H]1C(=O)N(c1cc(Cl)cc(Cl)c1)[C@@H]1CCOC[C@H]1O` [Example 103, (2R,3R,4S,5R,6R)-N-(3,5-dichlorophenyl)-5-hydroxy-6-(hydroxymethyl)-N-((3S,4R)-3-hydroxytetrahydro-2H-pyran-4-yl)-3-methoxy-4-(4-(3,4,5-trifluorophenyl)-1H-1,2,3-triazol-1-yl)tetrahydro-2H-pyran-2-carboxamide] reads 299 nM; that for `CO[C@@H]1[C@@H](n2cc(-c3cc(F)c(F)c(F)c3)nn2)[C@@H](O)[C@@H](CO)O[C@H]1C(=O)N(c1cc(C)cc(Br)c1)[C@@H]1CNCC[C@H]1O` [Example 115, (2R,3R,4S,5R,6R)-N-(3-bromo-5-methylphenyl)-5-hydroxy-6-(hydroxymethyl)-N-((3R,4R)-4-hydroxypiperidin-3-yl)-3-methoxy-4-(4-(3,4,5-trifluorophenyl)-1H-1,2,3-triazol-1-yl)tetrahydro-2H-pyran-2-carboxamide], 196 nM.

`CO[C@@H]1[C@@H](n2cc(-c3ccc(Br)c(F)c3F)nn2)[C@@H](O)[C@@H](CO)O[C@H]1C(=O)N(c1cc(Cl)cc(Cl)c1)[C@H]1COC[C@@H]1O` [Example 12, (2R,3R,4S,5R,6R)-4-(4-(4-bromo-2,3-difluorophenyl)-1H-1,2,3-triazol-1-yl)-N-(3,5-dichlorophenyl)-5-hydroxy-6-(hydroxymethyl)-N-((3S,4R)-4-hydroxytetrahydrofuran-3-yl)-3-methoxytetrahydro-2H-pyran-2-carboxamide]: the IC50 came out at 47 nM. In the case of `CO[C@@H]1[C@@H](n2cc(-c3cc(F)c(Cl)c(F)c3)nn2)[C@@H](O)[C@@H](CO)O[C@H]1C(=O)N(c1cc(Cl)cc(Cl)c1)[C@@H]1COC[C@H]1O` [Example 51, (2R,3R,4S,5R,6R)-4-(4-(4-chloro-3,5-difluorophenyl)-1H-1,2,3-triazol-1-yl)-N-(3,5-dichlorophenyl)-5-hydroxy-6-(hydroxymethyl)-N-((3R,4S)-4-hydroxytetrahydrofuran-3-yl)-3-methoxytetrahydro-2H-pyran-2-carboxamide], the IC50 stood at 73 nM. With `CO[C@@H]1[C@@H](n2cc(-c3cc(F)c(C)c(F)c3)nn2)[C@@H](O)[C@@H](CO)O[C@H]1C(=O)N(c1cc(Cl)cc(Cl)c1)[C@H]1COC[C@@H]1O` [Example 15, (2R,3R,4S,5R,6R)-N-(3,5-dichlorophenyl)-4-(4-(3,5-difluoro-4-methylphenyl)-1H-1,2,3-triazol-1-yl)-5-hydroxy-6-(hydroxymethyl)-N-((3S,4R)-4-hydroxytetrahydrofuran-3-yl)-3-methoxytetrahydro-2H-pyran-2-carboxamide], the IC50 was found to be 38 nM. Under `CO[C@@H]1[C@@H](n2cc(-c3cc(F)c(Cl)c(F)c3)nn2)[C@@H](O)[C@@H](CO)O[C@H]1C(=O)N(c1cc(C)cc(Br)c1)[C@@H]1CN(C(C)=O)C[C@H]1O` [Example 83, (2R,3R,4S,5R,6R)-N-((3R,4R)-1-acetyl-4-hydroxypyrrolidin-3-yl)-N-(3-bromo-5-methylphenyl)-4-(4-(4-chloro-3,5-difluorophenyl)-1H-1,2,3-triazol-1-yl)-5-hydroxy-6-(hydroxymethyl)-3-methoxytetrahydro-2H-pyran-2-carboxamide] stands 67 nM; under `CO[C@@H]1[C@@H](n2cc(-c3cc(F)c(F)c(F)c3)nn2)[C@@H](O)[C@@H](CO)O[C@H]1C(=O)N(c1cc(F)cc(C#N)c1)[C@H]1COC[C@@H]1O` [Example 11, (2R,3R,4S,5R,6R)-N-(3-cyano-5-fluorophenyl)-5-hydroxy-6-(hydroxymethyl)-N-((3S,4R)-4-hydroxytetrahydrofuran-3-yl)-3-methoxy-4-(4-(3,4,5-trifluorophenyl)-1H-1,2,3-triazol-1-yl)tetrahydro-2H-pyran-2-carboxamide], 124 nM; under `CO[C@@H]1[C@@H](n2cc(-c3cc(F)c(C)c(F)c3)nn2)[C@@H](O)[C@@H](CO)O[C@H]1C(=O)N(c1cc(Br)cc(Br)c1)[C@@H]1CN(C(C)=O)C[C@H]1O` [Example 81, (2R,3R,4S,5R,6R)-N-((3R,4R)-1-acetyl-4-hydroxypyrrolidin-3-yl)-N-(3,5-dibromophenyl)-4-(4-(3,5-difluoro-4-methylphenyl)-1H-1,2,3-triazol-1-yl)-5-hydroxy-6-(hydroxymethyl)-3-methoxytetrahydro-2H-pyran-2-carboxamide], 40 nM. Under `CO[C@@H]1[C@@H](n2cc(-c3cc(F)c(F)c(F)c3)nn2)[C@@H](O)[C@@H](CO)O[C@H]1C(=O)N(c1cc(C)cc(Br)c1)[C@H]1COCC[C@@H]1O` [Example 106, (2R,3R,4S,5R,6R)-N-(3-bromo-5-methylphenyl)-5-hydroxy-6-(hydroxymethyl)-N-((3S,4S)-4-hydroxytetrahydro-2H-pyran-3-yl)-3-methoxy-4-(4-(3,4,5-trifluorophenyl)-1H-1,2,3-triazol-1-yl)tetrahydro-2H-pyran-2-carboxamide] stands 13 nM.

Values taken from patent US20240124427A1, “HYDROXYHETEROCYCLOALKANE-CARBAMOYL DERIVATIVES” (Idorsia Pharmaceuticals Ltd, priority 2021, published 2024).
